Measurements reported in ChEMBL document CHEMBL4033759, “Photoaffinity Labeling of the Human A2A Adenosine Receptor and Cross-link Position Analysis by Mass Spectrometry” (ACS Med Chem Lett, 2017).

Experiments:
Adenosine receptor A2a [1] = target: T1, Adenosine receptor A2a (Homo sapiens, UniProt P29274); experiment: Binding affinity to C-terminal 10xHis and 1D4-tagged C-terminal-truncated human A2A adenosine receptor (1 to 316 residues) expressed in Pichia pastoris expression system at 2 nM after 1 hr by fluorescence polarization assay; conditions: read-out: Kd(app)
Adenosine receptor A2a [2] = target: T1, Adenosine receptor A2a; experiment: Binding affinity to C-terminal 10xHis and 1D4-tagged C-terminal-truncated human A2A adenosine receptor (1 to 316 residues) expressed in Pichia pastoris expression system at 4 nM after 1 hr by fluorescence polarization assay; conditions: read-out: Kd(app)
Adenosine receptor A2a [3] = target: T1, Adenosine receptor A2a; experiment: Binding affinity to C-terminal 10xHis and 1D4-tagged C-terminal-truncated human A2A adenosine receptor (1 to 316 residues) expressed in Pichia pastoris expression system at 8 nM after 1 hr by fluorescence polarization assay; conditions: read-out: Kd(app)
Adenosine receptor A2a [4] = target: T1, Adenosine receptor A2a; experiment: Binding affinity to human A2A adenosine receptor expressed in HEK293 cells after 1 hr by fluorescence polarization assay; assay type: cell-based
Adenosine receptor A2a [5] = target: T1, Adenosine receptor A2a; experiment: Binding affinity to C-terminal 10xHis and 1D4-tagged C-terminal-truncated human A2A adenosine receptor (1 to 316 residues) expressed in Pichia pastoris expression system at 1 nM after 1 hr by fluorescence polarization assay; conditions: read-out: Kd(app)
Adenosine receptor A2a [6] = target: T1, Adenosine receptor A2a; experiment: Displacement of MRS5346 from C-terminal 10xHis and 1D4-tagged C-terminal-truncated human A2A adenosine receptor (1 to 316 residues) expressed in Pichia pastoris expression system after 1 hr by fluorescence polarization assay

T1 sequence (P29274 whole entry, the tested form may be a part): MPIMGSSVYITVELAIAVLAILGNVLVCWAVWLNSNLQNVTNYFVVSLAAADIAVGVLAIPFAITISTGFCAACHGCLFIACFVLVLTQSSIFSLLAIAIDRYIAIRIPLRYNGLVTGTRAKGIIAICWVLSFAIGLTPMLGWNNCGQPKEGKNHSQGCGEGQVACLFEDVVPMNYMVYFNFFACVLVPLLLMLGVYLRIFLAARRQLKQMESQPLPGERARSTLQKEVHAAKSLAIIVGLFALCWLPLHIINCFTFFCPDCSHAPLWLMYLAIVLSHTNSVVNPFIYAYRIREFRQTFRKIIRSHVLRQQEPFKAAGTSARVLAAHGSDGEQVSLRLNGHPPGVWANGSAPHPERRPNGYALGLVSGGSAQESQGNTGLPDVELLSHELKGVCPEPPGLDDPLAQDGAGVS

| SMILES | Kd (Adenosine receptor A2a [1]) [nM] | Kd (Adenosine receptor A2a [2]) [nM] | Kd (Adenosine receptor A2a [3]) [nM] | Kd (Adenosine receptor A2a [4]) [nM] | Kd (Adenosine receptor A2a [5]) [nM] | Ki (Adenosine receptor A2a [6]) [nM] |
| --- | --- | --- | --- | --- | --- | --- |
| N=c1ccc2c(-c3ccc(C(=O)NCCNC(=O)COc4ccc(CCCn5ncc6c5nc(N)n5nc(-c7ccco7)nc65)cc4)cc3C(=O)O)c3ccc(N)c(S(=O)(=O)O)c3oc-2c1S(=O)(=O)O | 30.8 | 42.4 | 49.5 | 16.5 | 29 |  |
| Nc1nc2nn(Cc3ccc(C4(C(F)(F)F)N=N4)cc3)cc2c2nc(-c3ccco3)nn12 |  |  |  |  |  | 39.7 |
| Nc1nc2c(cnn2Cc2ccc(C3(C(F)(F)F)N=N3)cc2)c2nc(-c3ccco3)nn12 |  |  |  |  |  | 1520 |
